Source: US10239851B2 (priority 2014, dated 2019)
Where two headings read alike, the source gives them in different places. Marks after values point to notes of the source that are not given here.

Legend:
[1] = rat plasma, 37° C.; for Sampling time/dissociation percent (%) 5 s / Sampling time/dissociation percent (%) 15 s / Sampling time/dissociation percent (%) 30 s: formula F derivatives
Method: (§1) 0.1 ml samples were taken from each of the solutions, added respectively to 1 ml of blood plasma of rabbit (taken from New Zealand white rabbits, treated according to conventional methods, anticoagulated with heparin) or 1 ml of blood plasma of rat (taken from live SD rats, treated according to conventional methods, anticoagulated with heparin), homogeneously mixed, and placed in a thermostatic water bath at 37° C. for incubation with time being recorded. Samples were taken at different time points after the experiment began, and 2 ml of acetonitrile was immediately added. The samples were shaken and centrifuged for 5 min (15,000 rpm), and the supernatant was then taken for HPLC analysis.

[2] = rabbit plasma, 37° C.; for Sampling time/dissociation percent (%) 15 s / Sampling time/dissociation percent (%) 30 s: formula F derivatives
Method: as §1

[3] = system: SD rats; test: ED50 and LD50 test concerning anesthesia (sequential method) in rats; format: in vivo; conditions: for Rat ED50: anesthesia (loss of righting reflex); for Rat ED50 / Rat LD50: caudal vein injection
Method: (§2) Test samples for the experiment on rabbit were formulated to have corresponding concentrations based on the results from a preliminary test. […] Rats and mice were administered with samples having a fixed concentration of drugs, while the volume of administration altered according to actual situation. The volume of administration to rabbits was 1 mL/kg body weight.
(§3) ED50 and LD50 values concerning anesthesia were determined using a sequential method. Healthy KM mice (male), SD rats (male) and New Zealand White rabbits were used for test. […] For rabbits, the compounds were administered by injection at a constant rate via ear vein for 30 seconds. Before the test, a preliminary test was conducted to determine an approximate dosage (volume of administration) that leads to anesthetization (or death) of animals, which was set as the middle dosage in the formal test. […] The disappearance of righting reflex or death was used as indicators of pharmacological efficacy or toxicity, respectively. The formal test began with the administration of the middle dosage. If animals were anesthetized, a lower dosage was administered; if animals were not anesthetized, a higher dosage was administered, until the cycle was repeated for 3-4 times. LD50 and ED50 were calculated by a sequential method aot425 software. TI was calculated according to the following equation: TI=LD50/ED50.

[4] = system: New Zealand White rabbits; test: ED50 and LD50 test concerning anesthesia (sequential method) in rabbits; format: in vivo; conditions: for TI index: TI=LD50/ED50; for LD50 / ED50: injection via ear vein; for LD50: death; for ED50: disappearance of righting reflex
Method: as §2, §3

[5] = system: Kunming mice; test: Latent period and persistent period of anesthesia in mice; format: in vivo; conditions: intravenous injection
[6] = system: KM mice; test: ED50 and LD50 test concerning anesthesia (sequential method) in mice; format: in vivo; conditions: for Mouse ED50: anesthesia (loss of righting reflex); for Mouse ED50 / Mouse LD50: caudal vein injection
Method: as §2, §3

[7] = system: human prostate cancer PC-3; conditions: PC-3 xenograft, nude mice, 33.6 mg/kg, D0 IV, single dose;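 further: human prostate cancer PC-3 cells implanted under the skin of nude mice to form the xenograft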
Excerpt: Test of the inhibitory activity of the water soluble docetaxel derivatives on subcutaneously xenografted tumor of human prostate cancer PC-3 in nude mice: evaluating and comparing the inhibitory activity of the water soluble docetaxel derivatives and docetaxel on subcutaneously xenografted tumor of human prostate cancer PC-3 in nude mice.
Human prostate cancer PC-3 cells were subcutaneously inoculated into nude mice. After the tumor volume reached 100-150 mm^3, the animals were randomly divided into several groups, and administered with the water soluble docetaxel derivatives of the present invention and docetaxel, respectively once on the same day (D0). The tumor volume was measured 2-3 times per week, the animals were weighed and the data were recorded until day 20 (D20) after grouping.
The tumor volume (V) was calculated according to the equation: V=½×a×b^2, wherein a and b represent the length and the width, respectively.
T/C (%)=(T−T0)/(C−C0)×100, wherein T and C represent the tumor volume at the end of the experiment; and T0 and C0 represent the tumor volume at the beginning of the experiment.

[8] = In vitro dissociation of the water soluble taxane derivatives in blood plasma of rat; format: in vitro ADME, SD rats; conditions: 37° C.
Method: The obtained water soluble taxane derivatives were formulated as 0.2 mg/ml aqueous solutions. […] After 2 min, 5 min and 10 min of incubation, 0.2 ml of solutions were respectively taken from each of the samples, and added to acetonitrile (0.4 ml) cooled to −20° C. for precipitation of protein.

[9] = In vitro dissociation of the water soluble taxane derivatives in blood plasma of rabbit; format: in vitro ADME, New Zealand white rabbits; conditions: 37° C.
Method: The obtained water soluble taxane derivatives were formulated as 0.2 mg/ml aqueous solutions. […] After 5 min, 20 min and 60 min of incubation, 0.2 ml of solutions were respectively taken from each of the samples, and added to acetonitrile (0.4 ml) cooled to −20° C. for precipitation of protein.

[10] = system: mice; conditions: intravenous, equimolar amounts to propofol
[11] = dosage 2 * ED50, 3 mg/ml solution
[12] = dosage 2 * ED50, 6 mg/ml solution
[13] = 3 mg/ml solution, confirmation test
[14] = 6 mg/ml solution, confirmation test
[15] = formula G derivatives, sampling time 15 s

| SMILES | TI Rat ([3]; 3 mg/ml solution) | TI Rat ([3]; 6 mg/ml solution) | Rat ED50 ([3]; 6 mg/ml solution) [mg/kg] | LD50 [4] | ED50 [4] | Latent Period [5, 11] [s] | Persistent period [5, 11] [s] | Latent Period [5, 12] [s] | Persistent period [5, 12] [s] | TI Mouse [6, 13] | TI Mouse ([6]; 3 mg/ml solution, first test) | TI Mouse [6, 14] | TI Mouse ([6]; 6 mg/ml solution, first test) | Mouse ED50 [6, 13] [mg/kg] | Mouse ED50 ([6]; 3 mg/ml solution, first test) [mg/kg] | Mouse ED50 [6, 14] [mg/kg] | Mouse ED50 ([6]; 6 mg/ml solution, first test) [mg/kg] | Mouse LD50 [6, 13] [mg/kg] | Mouse LD50 ([6]; 3 mg/ml solution, first test) [mg/kg] | Mouse LD50 ([6]; 6 mg/ml solution, first test) [mg/kg] | also measured |
| --- | --- | --- | --- | --- | --- | --- | --- | --- | --- | --- | --- | --- | --- | --- | --- | --- | --- | --- | --- | --- | --- |
| CC(C)c1cccc(C(C)C)c1OC(=O)C(F)CCC(=O)[O-].[Na+] (racemic) [Compound F1, propofol 4-carboxyl-2(R,S)-fluorovalerate sodium salt] | 3.0 | 3.7 | 11.3 | 34.4 (32.1-36.5) mg/kg | 12.2 (10.6-14.6) mg/kg | 18.6 ± 0.7 | 349.7 ± 229.4 | 15.2 ± 1.4 | 523 ± 248 | 2.8 | 3* | 3.3 | 2.7* | 18.6 | 20.8 | 16.7 | 18.2 | 52.3 | 63.4 | 49.7 | Sampling time/dissociation percent (%) 5 s ([1]; sampling time 5 s): 64.1%; Sampling time/dissociation percent (%) 15 s ([1]; sampling time 15 s): 70.2%; Sampling time/dissociation percent (%) 30 s [1]: 86.7%; Sampling time/dissociation percent (%) 15 s ([2]; sampling time 15 s): 47.5%; Sampling time/dissociation percent (%) 30 s ([2]; sampling time 30 s): 75.5%; Rat ED50 ([3]; 3 mg/ml solution): 14.6 mg/kg; Rat LD50 ([3]; 3 mg/ml solution): 44.1 mg/kg; Rat LD50 ([3]; 6 mg/ml solution): 42.3 mg/kg; TI index [4]: 2.8; Mouse LD50 [6, 14]: 55.4 mg/kg |
| CC(=O)O[C@@]12CO[C@@H]1C[C@H](O)[C@@]1(C)C(=O)[C@H](O)C3=C(C)[C@@H](OC(=O)[C@H](OC(=O)[C@@H](F)CCCCN(C)C)[C@@H](NC(=O)OC(C)(C)C)c4ccccc4)C[C@@](O)([C@@H](OC(=O)c4ccccc4)[C@H]21)C3(C)C.O=S(=O)(O)O [Compound 29, 2′-O-[6-(N,N-dimethyl)amino-2(S)-fluorohexanoyl]docetaxel sulfate] | – | – | – | – | – | – | – | – | – | – | – | – | – | – | – | – | – | – | – | – | Tumor volume (mm^3) (D0) ([7]; D0 (baseline at grouping)): 114.7 ± 3.5 mm^3; Weight change (%) D6 ([7]; D6): −15.8%; T/C (%) D20 ([7]; D20): −20%; Tumor volume (mm^3) (D20) ([7]; D20): 52.4 ± 12.5 mm^3; Tumor inhibitory percent (%) D20 ([7]; D20, P(D20)=0.000 vs control): 45% |
| CC(=O)O[C@@]12CO[C@@H]1C[C@H](O)[C@@]1(C)C(=O)[C@H](O)C3=C(C)[C@@H](OC(=O)[C@H](OC(=O)[C@H](F)CCN(C)C)[C@@H](NC(=O)OC(C)(C)C)c4ccccc4)C[C@@](O)([C@@H](OC(=O)c4ccccc4)[C@H]21)C3(C)C.CS(=O)(=O)O [Compound C4, 2′-O-[4-(N,N-dimethyl)amino-2(R)-fluorobutyryl]docetaxel methanesulfonate] | – | – | – | – | – | – | – | – | – | – | – | – | – | – | – | – | – | – | – | – | dissociation percent ([8]; 2 min): 59.2%; dissociation percent ([8]; 5 min): 93.4%; dissociation percent ([8]; 10 min): 100%; T/C (%) D20 ([7]; D20): −77%; dissociation percent ([9]; 5 min): 81.6%; dissociation percent ([9]; 20 min): 94.8%; dissociation percent ([9]; 60 min): 100% |
| CC(=O)O[C@@]12CO[C@@H]1C[C@H](O)[C@@]1(C)C(=O)[C@H](O)C3=C(C)[C@@H](OC(=O)[C@H](OC(=O)[C@@H](F)CCN(C)C)[C@@H](NC(=O)OC(C)(C)C)c4ccccc4)C[C@@](O)([C@@H](OC(=O)c4ccccc4)[C@H]21)C3(C)C.CS(=O)(=O)O [Compound C5, 2′-O-[4-(N,N-dimethyl)amino-2(S)-fluorobutyryl]docetaxel methanesulfonate] | – | – | – | – | – | – | – | – | – | – | – | – | – | – | – | – | – | – | – | – | dissociation percent ([8]; 2 min): 58.9%; dissociation percent ([8]; 5 min): 93.3%; dissociation percent ([8]; 10 min): 100%; T/C (%) D20 ([7]; D20): −76%; dissociation percent ([9]; 5 min): 81.2%; dissociation percent ([9]; 20 min): 93.1%; dissociation percent ([9]; 60 min): 100% |
| CC(=O)O[C@@]12CO[C@@H]1C[C@H](O)[C@@]1(C)C(=O)[C@H](O)C3=C(C)[C@@H](OC(=O)[C@H](OC(=O)C(F)CCN(C)C)[C@@H](NC(=O)OC(C)(C)C)c4ccccc4)C[C@@](O)([C@@H](OC(=O)c4ccccc4)[C@H]21)C3(C)C.CS(=O)(=O)O (stereo partly drawn) [Compound C6, 2′-O-[4-(N,N-dimethyl)amino-2(R,S)-fluorobutyryl]docetaxel methanesulfonate] | – | – | – | – | – | – | – | – | – | – | – | – | – | – | – | – | – | – | – | – | dissociation percent ([8]; 2 min): 59.1%; dissociation percent ([8]; 5 min): 93.3%; dissociation percent ([8]; 10 min): 100%; T/C (%) D20 ([7]; D20): −76%; dissociation percent ([9]; 5 min): 76.8%; dissociation percent ([9]; 20 min): 97.8%; dissociation percent ([9]; 60 min): 100% |
| CC(C)c1cccc(C(C)C)c1OC(=O)[C@H](F)CCN(C)C.Cl [Compound E2, Propofol 4-(N,N-dimethyl)amino-2(R)-fluorobutyrate Hydrochloride] | 3.8 | 3.1 | 10.1 | 28 (23.0-34.2) mg/kg | 8 (5.7-10.5) mg/kg | 14.6 ± 0.9 | 383.6 ± 242.1 | 14.2 ± 1.9 | 543 ± 231 | 3^ | 4* | 3.7 | 3.6* | 15.4 | 17.9 | 13.0 | 15.2 | 46.9 | 71.8 | 55.1 | dissociation percent ([1]; 5 s): 100%; dissociation percent ([2]; 15 s): 97.7%; dissociation percent ([2]; 30 s): 100%; Rat ED50 ([3]; 3 mg/ml solution): 9.8 mg/kg; Rat LD50 ([3]; 3 mg/ml solution): 37.5 mg/kg; Rat LD50 ([3]; 6 mg/ml solution): 30.7 mg/kg; TI index [4]: 3.5; Mouse LD50 [6, 14]: 48.0 mg/kg |
| CC(C)c1cccc(C(C)C)c1OC(=O)C(F)CC(=O)[O-].[Na+] [Compound F7, propofol 3-carboxyl-2(R)-fluorobutyrate sodium salt] | 3.0 | 3.5 | 12.5 | 36.7 (33.8-39.4) mg/kg | 13.9 (11.1-16.8) mg/kg | 20.2 ± 0.6 | 335.5 ± 218.1 | 16.2 ± 2.2 | 517 ± 231 | 2.6 | 2.8* | 3.1 | 2.4* | 19.2 | 21.4 | 18.1 | 20.7 | 51.6 | 59.8 | 51.2 | Sampling time/dissociation percent (%) 5 s ([1]; sampling time 5 s): 58.8%; Sampling time/dissociation percent (%) 15 s ([1]; sampling time 15 s): 71.3%; Sampling time/dissociation percent (%) 30 s [1]: 85.4%; Sampling time/dissociation percent (%) 15 s ([2]; sampling time 15 s): 46.3%; Sampling time/dissociation percent (%) 30 s ([2]; sampling time 30 s): 72.8%; Rat ED50 ([3]; 3 mg/ml solution): 15.7 mg/kg; Rat LD50 ([3]; 3 mg/ml solution): 47.4 mg/kg; Rat LD50 ([3]; 6 mg/ml solution): 44.4 mg/kg; TI index [4]: 2.6; Mouse LD50 [6, 14]: 56.6 mg/kg |
| CC(C)c1cccc(C(C)C)c1OC(=O)[C@@H](F)CCOP(=O)([O-])[O-].[Na+].[Na+] [Compound G2, {1-[4-(2,6-diisopropylphenoxy)-4-oxo-3-(S)-3-fluoro-1-butyl]} phosphate monoester disodium salt] | 3.3 | 2.8 | 21.1 | 38.7 (35.1-41.3) mg/kg | 14.7 (12.6-19.1) mg/kg | 16.3 ± 0.8 | 383.6 ± 242.1 | 15.7 ± 2.3 | 571 ± 173 | 3.0 | 2.8* | 2.3 | 1.9* | 19.8 | 23.7 | 22.8 | 25.6 | 60.4 | 65.7 | 48.7 | Sampling time/dissociation percent (%) 5 S ([1]; formula G derivatives, sampling time 5 s): 48.5%; Sampling time/dissociation percent (%) 15 S [1, 15]: 69.7%; Sampling time/dissociation percent (%) 15 S [2, 15]: 37.2%; Sampling time/dissociation percent (%) 30 S ([2]; formula G derivatives, sampling time 30 s): 54.3% |
| CC(C)c1cccc(C(C)C)c1OC(=O)CCCN(C)C.Cl [J′-1, reference compound] | – | – | – | – | – | – | – | – | – | – | – | – | – | – | – | – | – | – | – | – | latent period for anesthesia compared to propofol [10]: much longer than those of propofol; neurotoxic response after waking up [10]: transient hemiplegia after waking up; persistent period for anesthesia compared to propofol [10]: much longer than those of propofol |
